Assays:
NPP1 = biological target: T1, NPP1 (Homo sapiens, UniProt P22413); experiment: NPP1 assay with p-Nph-5'-TMP as substrate; type: biochemical; conditions: soluble NPP1; 400 µM p-Nph-5'-TMP; read-out: Ki ± SEM
T1 construct: the catalytic domains of the enzymes were amplified and sub-cloned into the expression vector pACGP67 A/B; made in house; host or cells: Sf9 insect cells
T1 sequence (P22413 98-925 limits assumed): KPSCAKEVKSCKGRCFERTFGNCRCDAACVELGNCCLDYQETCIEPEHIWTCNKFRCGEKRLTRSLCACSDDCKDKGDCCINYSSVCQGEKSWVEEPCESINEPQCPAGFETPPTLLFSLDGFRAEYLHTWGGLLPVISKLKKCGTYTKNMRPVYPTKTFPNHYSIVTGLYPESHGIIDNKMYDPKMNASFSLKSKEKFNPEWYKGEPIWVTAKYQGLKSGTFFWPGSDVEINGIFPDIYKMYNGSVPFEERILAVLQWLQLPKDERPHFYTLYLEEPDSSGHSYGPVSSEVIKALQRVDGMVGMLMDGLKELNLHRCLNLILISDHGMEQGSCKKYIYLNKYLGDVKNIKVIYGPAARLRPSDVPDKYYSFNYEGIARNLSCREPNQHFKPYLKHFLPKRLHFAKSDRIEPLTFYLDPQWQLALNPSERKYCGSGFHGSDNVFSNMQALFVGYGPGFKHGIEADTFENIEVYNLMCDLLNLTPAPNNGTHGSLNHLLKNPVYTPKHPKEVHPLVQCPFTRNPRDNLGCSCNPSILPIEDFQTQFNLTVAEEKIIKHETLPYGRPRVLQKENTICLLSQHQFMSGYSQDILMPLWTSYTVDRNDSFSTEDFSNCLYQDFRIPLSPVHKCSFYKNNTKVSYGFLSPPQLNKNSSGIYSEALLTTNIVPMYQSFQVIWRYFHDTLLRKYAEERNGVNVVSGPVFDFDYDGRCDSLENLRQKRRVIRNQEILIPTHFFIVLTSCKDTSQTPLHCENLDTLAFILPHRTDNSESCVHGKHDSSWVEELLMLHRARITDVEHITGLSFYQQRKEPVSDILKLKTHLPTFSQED
Source text: The cDNAs of the human enzymes NPP1, NPP3, NPP5, CD38 and CD73 (Genbank accession no. NM_006258, NM_005021, NM_021572, NM_ 001775, and NM_002526, respectively) were obtained from Origene (Rockville, USA). Soluble enzymes were produced as previously reported with some modifications ([Lee et al., 2015]; [Junker et al., 2019]). Briefly, the catalytic domains of the enzymes were amplified and sub-cloned into the expression vector pACGP67 A/B modified with the addition of 9 x histidine tag (His-tag) at the C-terminus (except for NPP1). The plasmids were transfected in Sf9 insect cells using Cellfectin™ II Reagent (Thermo Fisher Scientific, MA, USA) and ProEasy™ baculovirus linearized DNA (Cat.#A10S, AB Vector, LLC). Protein expression was conducted for 48 h at 27°C. The signal peptide sequence of the expression vector shuttled the proteins into the supernatant. The supernatant medium was collected, and the enzymes were purified using HisPur™ Ni^2+-NTA spin columns according to the manufacturer’s protocol. The protein concentration was determined by the method previously described by [Lowry et al. (1951)].
Inhibition of NPP1 was determined as previously described ([Lee et al., 2017b]). p-Nitrophenyl-5’-thymidine monophosphate (p-Nph-5’-TMP) was used as an artificial substrate which results in the formation of the p-nitrophenolate anion with an absorption maximum of 400 nm. Purified soluble NPP1 [0.36 µg, expressed in Sf9 insect cells as previously described ([Lee et al., 2015])] was mixed with test compound (20 µM final concentration for initial screening, 0.1–200 µM for determining concentration-dependent inhibition curves), 2% DMSO and 400 µM of p-Nph-5’-TMP as a substrate in a final volume of 100 µl. The mixture was incubated for 30 min at 37°C with gentle shaking, and the enzyme reaction was terminated by the addition of 20 µl of 1 M NaOH. The absorption was measured at 405 nm using a BMG PheraStar FS plate reader (BMG Labtech GmbH, Ortenberg, Germany).

NPP4 = biological target: T2, NPP4 (Homo sapiens, UniProt Q9Y6X5); experiment: NPP4 assay with AP4A as substrate, luciferin-luciferase detection; type: biochemical; conditions: for inhibition at 10 µM: 10 µM test compound; for Ki: 20 µM AP4A, read-out: Ki ± SEM
T2 construct: 1.4 µg of NPP4 (soluble form expressed in insect cells and purified); made in house; host or cells: Sf9 insect cells
T2 sequence (Q9Y6X5 16-407 limits assumed): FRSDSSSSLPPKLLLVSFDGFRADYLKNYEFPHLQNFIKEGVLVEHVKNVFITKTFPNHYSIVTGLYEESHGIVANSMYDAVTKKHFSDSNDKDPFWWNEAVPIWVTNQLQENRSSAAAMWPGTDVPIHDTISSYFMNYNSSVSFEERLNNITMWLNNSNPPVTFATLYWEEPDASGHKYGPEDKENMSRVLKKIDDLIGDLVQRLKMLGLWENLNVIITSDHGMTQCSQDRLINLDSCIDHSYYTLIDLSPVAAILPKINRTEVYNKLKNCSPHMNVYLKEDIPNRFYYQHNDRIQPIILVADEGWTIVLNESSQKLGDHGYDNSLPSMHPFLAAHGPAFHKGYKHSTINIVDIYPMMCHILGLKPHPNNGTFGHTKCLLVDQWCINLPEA
Protocol: Soluble NPP4 was expressed in Sf9 insect cells as recently described in detail ([Lopez et al., 2020]). Diadenosine tetraphosphate (AP4A) was employed as a substrate which is cleaved by NPP4 to ATP and AMP. The reaction product ATP was quantified by luciferin-luciferase reaction ([Lopez et al., 2020]). A mixture of 1.4 µg of NPP4 (soluble form expressed in insect cells and purified) ([Lopez et al., 2020]), 10 µM of test compound, 2 % DMSO, and 20 µM of AP4A as a substrate were incubated for 60 min at 37°C with gentle shaking. The reaction was terminated by heating at 90°C for 5 min, and after cooling down on ice, 50 µl of D-luciferin dissolved in buffer (300 mM Tris-HCl, 15 mM MgCl2, 100 ng D-luciferin, pH 7.8) and 50 µl of luciferase (50 ng dissolved in H2O) were added. The firefly luciferase reacts with D-luciferin in the presence of ATP produced by NPP4. The resulting luminescence was measured between 10–14 min at 560 nm using a BMG PheraStar FS plate reader (BMG Labtech GmbH, Ortenberg, Germany).

[1] = Metabolic stability in mouse liver microsomes; type: in vitro ADME; conditions: both sexes; mouse liver microsomes 0.5 mg/mL; compound 1 μM
Protocol: The experiments were performed by Pharmacelsus, Saarbrücken, Germany (https://www.pharmacelsus.com/services/in-vitro-adme/) using human and mouse liver microsomes (0.5 mg/mL, mixed gender, pooled). Compounds were tested at a concentration of 1 μM. Data points represent means of two separate experiments performed in duplicates.

Row | SMILES | Ki (NPP1) [µM] | inhibition at 10 µM (NPP4) [%] | Ki (NPP4) [µM] | half-life at 1 μM [1] [min]
1 | CCN(CC)c1ncnc2c1ncn2[C@@H]1O[C@H](COP(=O)(O)OP(=O)(O)C(Br)(Br)P(=O)(O)O)[C@@H](O)[C@H]1O [ARL67156, (Dibromo((((((2R,3S,4R,5R)-5-(6-(diethylamino)-9H-purin-9-yl)-3,4-dihydroxytetrahydrofuran-2-yl)methoxy)-(hydroxy)-phosphoryl)oxy)(hydroxy)phosphoryl)methyl)-phosphonic Acid, reference compound] | 4.41 ± 3.53 | -1 | > 10 | < 1
2 | CCCCSc1nc2c(N)ncnc2n1[C@@H]1O[C@H](COP(=O)(O)OP(=O)(O)C(Br)(Br)P(=O)(O)O)[C@@H](O)[C@H]1O [Compound 31, (((((((2R,3S,4R,5R)-5-(6-Amino-8-(butylthio)-9H-purin-9-yl)-3,4-dihydroxytetrahydrofuran-2-yl)methoxy)(hydroxy)-phosphoryl)oxy)(hydroxy)phosphoryl)dibromomethyl)-phosphonic Acid] | 5.17 ± 1.75 | 2 | > 10 | < 1
3 | CCCCNc1nc2c(NC)ncnc2n1[C@@H]1O[C@H](COP(=O)(O)OP(=O)(O)C(Br)(Br)P(=O)(O)O)[C@@H](O)[C@H]1O [Compound 33, (Dibromo((((((2R,3S,4R,5R)-5-(8-(butylamino)-6-(methylamino)-9H-purin-9-yl)-3,4-dihydroxy-tetrahydrofuran-2-yl)methoxy)(hydroxy)phosphoryl)oxy)-(hydroxy)phosphoryl)methyl)-phosphonic Acid] | 7.68 ± 5.4 | 4 | > 10 | < 1
